By IC50 is commonly meant the midpoint of a concentration-inhibition curve.

Experiment [1] deals with JAK1-dependent STAT6 phosphorylation downstream of IL-13 stimulation in TF-1 human erythroleukemia cells. Put plainly: cells. The following applies: TF-1, read-out: IL-13-pSTAT6 IC50.
Experimental: (§1) Inhibitor potency (EC50) was determined in cell-based assays designed to measure JAK1 dependent STAT phosphorylation.
(§2) Prior to use in the assays, TF-1 cells were starved of GM-CSF overnight in OptiMEM medium (Life Technologies, Grand Island, N.Y.) supplemented with 0.5% charcoal/dextran stripped fetal bovine serum (FBS), 0.1 mM non-essential amino acids (NEAA), and 1 mM sodium pyruvate. The assays were run in 384-well plates in serum-free OptiMEM medium using 300,000 cells per well. In a second assay approach, BEAS-2B human bronchial epithelial cells obtained from ATCC were plated at 100,000 cells per well of a 96-well plate one day prior to the experiment. The BEAS-2B assay was run in complete growth medium (bronchial epithelial basal medium plus bulletkit; Lonza; Basel, Switzerland).
(§3) Test compounds were serially diluted 1:2 in DMSO and then diluted 1:50 in medium just before use. Diluted compounds were added to the cells, for a final DMSO concentration of 0.2%, and incubated for 30 min (for the TF-1 assay) or 1 hr (for the BEAS-2B assay) at 37° C. Then, cells were stimulated with human recombinant cytokine at their respective EC90 concentrations, as previously determined for each individual lot. […] The resultant samples were frozen in the plates at −80° C. Compound mediated inhibition of STAT6 phosphorylation was measured in the cell lysates using MesoScale Discovery (MSD) technology (Gaithersburg, Md.).
Experiment [2] relates to JAK1-dependent STAT6 phosphorylation downstream of IL-13 stimulation in BEAS-2B human bronchial epithelial cells. As to the kind of experiment: cells. The following applies: read-out: IL13-pSTAT6 BEASB2B IC50.
Experimental: as §1, §2, §3

As for `CN1CCC(N(C)C(=O)c2ccc(Nc3nc4c(N5CCC(O)(c6ccc(Cl)cc6)CC5)cccn4n3)cc2)CC1` [Example 1-17, 4-[[8-[4-(4-chlorophenyl)-4-hydroxy-1-piperidyl]-[1,2,4]triazolo[1,5-a]pyridin-2-yl]amino]-N-methyl-N-(1-methyl-4-piperidyl)benzamide], the results for the IC50 in experiment [1] and in experiment [2] were 33.9 nM and 153 nM, respectively.

In the case of `CNC1CN(C(=O)c2ccc(Nc3nc4c(N5CCC(O)(c6ccc(Cl)cc6)CC5)cccn4n3)cc2)C1` [Example 1-47, [4-[[8-[4-(4-chlorophenyl)-4-hydroxy-1-piperidyl]-[1,2,4]triazolo[1,5-a]pyridin-2-yl]amino]phenyl]-[3-(methylamino)azetidin-1-yl]methanone], the half-maximal inhibitory concentration (IC50) in experiment [1] was 10.3 nM; in experiment [2] it was 58.1 nM.

With `O=C(NCCCN1CCOCC1)c1ccc(Nc2nc3c(N4CCC(O)(c5ccc(Cl)cc5)CC4)cccn3n2)cc1` [Example 1-98, 4-[[8-[4-(4-chlorophenyl)-4-hydroxy-1-piperidyl]-[1,2,4]triazolo[1,5-a]pyridin-2-yl]amino]-N-(3-morpholinopropyl) benzamide], the results for the half-inhibitory concentration (IC50) in experiment [1] and in experiment [2] were 11.9 nM and 42.4 nM, respectively.

Take `CN1CCCC1CCNC(=O)c1ccc(Nc2nc3c(N4CCC(O)(c5ccc(Cl)cc5)CC4)cccn3n2)cc1` (stereo not drawn) [Example 1-102, 4-[[8-[4-(4-chlorophenyl)-4-hydroxy-1-piperidyl]-[1,2,4]triazolo[1,5-a]pyridin-2-yl]amino]-N-[2-(1-methylpyrrolidin-2-yl)ethyl]benzamide]: the IC50 in experiment [1] amounted to 45 nM; in experiment [2], 54.7 nM.

As to `O=C(c1ccc(Nc2nc3c(N4CCC(O)(c5ccc(Cl)cc5)CC4)cccn3n2)cc1)N1CCC(N2CCOCC2)C1` (stereo not drawn) [Example 1-127, [4-[[8-[4-(4-chlorophenyl)-4-hydroxy-1-piperidyl]-[1,2,4]triazolo[1,5-a]pyridin-2-yl]amino]phenyl]-(3-morpholinopyrrolidin-1-yl)methanone], the half-maximal inhibitory concentration (IC50) is 14.7 nM in experiment [1] and 24.5 nM in experiment [2].

Regarding `O=C(NCCCN1CCOCC1)c1ccc(Nc2nc3c(C4C=CN(C(=O)CCC(F)(F)F)CC4)cccn3n2)cc1` (stereo not drawn) [Example 1-295, N-(3-morpholinopropyl)-4-[[8-[1-(4,4,4-trifluorobutanoyl)-3,4-dihydro-2H-pyridin-4-yl]-[1,2,4]triazolo[1,5-a]pyridin-2-yl]amino]benzamide], the half-inhibitory concentration (IC50) in experiment [2] amounted to 729 nM.

As for `CN(CCC#N)C1CCN(C(=O)Cn2cc(Nc3nc4c(N5CCC(CO)(c6ccc(Cl)cc6)CC5)cccn4n3)cn2)CC1` [Example 1-296, 3-[[1-[2-[4-[[8-[4-(4-chlorophenyl)-4-(hydroxymethyl)-1-piperidyl]-[1,2,4]triazolo[1,5-a]pyridin-2-yl]amino]pyrazol-1-yl]acetyl]-4-piperidyl]-methyl-amino]propanenitrile], the IC50 in experiment [2] is 12.6 nM.

Take `CCOC(=O)N1CC=C(c2cccn3nc(Nc4ccc(C(=O)N5CCC(N6CCOCC6)CC5)cc4)nc23)CC1` [Example 2-18, ethyl 4-[2-[4-(4-morpholinopiperidine-1-carbonyl)anilino]-[1,2,4]triazolo[1,5-a]pyridin-8-yl]-3,6-dihydro-2H-pyridine-1-carboxylate]: the 50% inhibitory concentration (IC50) in experiment [2] was found to be 134 nM.

As for `CCOC(=O)N1CC=C(c2cccn3nc(Nc4ccc(C(=O)N5CCC(N6CC(C)OC(C)C6)CC5)cc4)nc23)CC1` (stereo not drawn) [Example 2-63, ethyl 4-[2-[4-[4-(2,6-dimethylmorpholin-4-yl)piperidine-1-carbonyl]anilino]-[1,2,4]triazolo[1,5-a]pyridin-8-yl]-3,6-dihydro-2H-pyridine-1-carboxylate], the IC50 in experiment [2] is 151 nM.

Consider `CCOC(=O)N1CC=C(c2cccn3nc(Nc4ccc(C(=O)N5CCC(N6CCOCC6)C5)cc4)nc23)CC1` (stereo not drawn) [Example 2-66, ethyl 4-[2-[4-(3-morpholinopyrrolidine-1-carbonyl)anilino]-[1,2,4]triazolo[1,5-a]pyridin-8-yl]-3,6-dihydro-2H-pyridine-1-carboxylate], for which the half-maximal inhibitory concentration (IC50) in experiment [2] came to 224 nM.

These data come from patent US9873709B2 (priority 2013, dated 2018).
